What was measured:
Format in all cases: in vivo
[1] = test system: ABUTH, Velvetleaf, Abutilon theophrasti, Medic.; assay: Postemergence herbicidal evaluation (Example 147); settings: rating scale 0-9, two to three weeks after treatment
Summary of the method: (§1)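 Greenhouse postemergence test: two-week seedlings sprayed at about 0.016 to 0.032 kg/ha active. Scored visually, 0-9 scale, after two to three weeks.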

[2] = test system: XANST, Cocklebur, Xanthium strumariam; assay: Postemergence herbicidal evaluation (Example 147); settings: rating scale 0-9, two to three weeks after treatment
Summary of the method: as §1

[3] = test system: DIGSA, Crabgrass, (Hairy) L, Digitaria sanguinalis, (L)Scop; assay: Postemergence herbicidal evaluation (Example 147); settings: rating scale 0-9, two to three weeks after treatment
Summary of the method: as §1

[4] = test system: ALOMY, Blackgrass, Alopecurus myosuroides; assay: Postemergence herbicidal evaluation (Example 147); settings: rating scale 0-9, two to three weeks after treatment
Summary of the method: as §1

[5] = test system: AMBEL, Ragweed, Common, Ambrosia artemiisifolia, L.; assay: Postemergence herbicidal evaluation (Example 147); settings: rating scale 0-9, two to three weeks after treatment
Summary of the method: as §1

[6] = test system: GLXMA, Soybean, Glycine max, (L.) Merr.; assay: Postemergence herbicidal evaluation (Example 147); settings: rating scale 0-9, two to three weeks after treatment
Summary of the method: as §1

[7] = test system: CHEAL, Lambsquarters, Chenopodium album, L. Common; assay: Postemergence herbicidal evaluation (Example 147); settings: rating scale 0-9, two to three weeks after treatment
Summary of the method: as §1

[8] = test system: IPOHE, Morningglory, Ivyleaf, Ipomoea hederacea, (L)Jacq.; assay: Postemergence herbicidal evaluation (Example 147); settings: rating scale 0-9, two to three weeks after treatment
Summary of the method: as §1

[9] = test system: ZEAMX, Field corn, Zea mays L.; assay: Postemergence herbicidal evaluation (Example 147); settings: rating scale 0-9, two to three weeks after treatment
Summary of the method: as §1

[10] = test system: TRZAW, Winter wheat, Tritium Aestivum, L. (Winter); assay: Postemergence herbicidal evaluation (Example 147); settings: rating scale 0-9, two to three weeks after treatment
Summary of the method: as §1

[11] = test system: SETVI, Green foxtail, Setaria viridis, (L.)Beau; assay: Postemergence herbicidal evaluation (Example 147); settings: rating scale 0-9, two to three weeks after treatment
Summary of the method: as §1

[12] = test system: ECHCG, Barnyardgrass, Echinochloa crusgalli, (L.)Beau; assay: Postemergence herbicidal evaluation (Example 147); settings: rating scale 0-9, two to three weeks after treatment
Summary of the method: as §1

[13] = test system: ABUTH, Velvetleaf, Abutilon theophrasti, Medic.; assay: Preemergence herbicidal evaluation (Example 148); settings: rating scale 0-9, two to four weeks after treatment
Summary of the method: (§2)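 Visual rating vs. control (stand, vigor, malformation, size, chlorosis, overall appearance) at 2–4 wk post-treatment. Soil surface sprayed right after sowing; ~0.125–0.250 kg/ha in aqueous acetone. Repeat tests averaged.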

[14] = test system: XANST, Cocklebur, Xanthium strumariam; assay: Preemergence herbicidal evaluation (Example 148); settings: rating scale 0-9, two to four weeks after treatment
Summary of the method: as §2

[15] = test system: DIGSA, Crabgrass, (Hairy) L, Digitaria sanguinalis, (L)Scop; assay: Preemergence herbicidal evaluation (Example 148); settings: rating scale 0-9, two to four weeks after treatment
Summary of the method: as §2

[16] = test system: ALOMY, Blackgrass, Alopecurus myosuroides; assay: Preemergence herbicidal evaluation (Example 148); settings: rating scale 0-9, two to four weeks after treatment
Summary of the method: as §2

[17] = test system: AMBEL, Ragweed, Common, Ambrosia artemiisifolia, L.; assay: Preemergence herbicidal evaluation (Example 148); settings: rating scale 0-9, two to four weeks after treatment
Summary of the method: as §2

[18] = test system: GLXMA, Soybean, Glycine max, (L.) Merr.; assay: Preemergence herbicidal evaluation (Example 148); settings: rating scale 0-9, two to four weeks after treatment
Summary of the method: as §2

[19] = test system: CHEAL, Lambsquarters, Chenopodium album, L. Common; assay: Preemergence herbicidal evaluation (Example 148); settings: rating scale 0-9, two to four weeks after treatment
Summary of the method: as §2

[20] = test system: IPOHE, Morningglory, Ivyleaf, Ipomoea hederacea, (L)Jacq.; assay: Preemergence herbicidal evaluation (Example 148); settings: rating scale 0-9, two to four weeks after treatment
Summary of the method: as §2

[21] = test system: ZEAMX, Field corn, Zea mays L.; assay: Preemergence herbicidal evaluation (Example 148); settings: rating scale 0-9, two to four weeks after treatment
Summary of the method: as §2

[22] = test system: TRZAW, Winter wheat, Tritium Aestivum, L. (Winter); assay: Preemergence herbicidal evaluation (Example 148); settings: rating scale 0-9, two to four weeks after treatment
Summary of the method: as §2

[23] = test system: SETVI, Green foxtail, Setaria viridis, (L.)Beau; assay: Preemergence herbicidal evaluation (Example 148); settings: rating scale 0-9, two to four weeks after treatment
Summary of the method: as §2

[24] = test system: ECHCG, Barnyardgrass, Echinochloa crusgalli, (L.)Beau; assay: Preemergence herbicidal evaluation (Example 148); settings: rating scale 0-9, two to four weeks after treatment
Summary of the method: as §2

Structure (SMILES): CNS(=O)(=O)NC(=O)c1cc(-n2c(=O)cc(C(F)(F)F)n(C)c2=O)c(F)cc1Cl [Example 56]
- Postemergence herbicidal rating ABUTH ([1]; rate 0.016 kg/ha): 9.0
- Postemergence herbicidal rating ABUTH ([1]; rate 0.032 kg/ha): 9.0
- Postemergence herbicidal rating XANST ([2]; rate 0.016 kg/ha): 9.0
- Postemergence herbicidal rating XANST ([2]; rate 0.032 kg/ha): 9.0
- Postemergence herbicidal rating DIGSA ([3]; rate 0.016 kg/ha): 3.0
- Postemergence herbicidal rating DIGSA ([3]; rate 0.032 kg/ha): 5.0
- Postemergence herbicidal rating ALMOY ([4]; rate 0.016 kg/ha): 2.0
- Postemergence herbicidal rating ALMOY ([4]; rate 0.032 kg/ha): 2.0
- Postemergence herbicidal rating AMBEL ([5]; rate 0.016 kg/ha): 8.0
- Postemergence herbicidal rating AMBEL ([5]; rate 0.032 kg/ha): 9.0
- Postemergence herbicidal rating GLXMA ([6]; rate 0.016 kg/ha): 8.5
- Postemergence herbicidal rating GLXMA ([6]; rate 0.032 kg/ha): 8.5
- Postemergence herbicidal rating CHEAL ([7]; rate 0.016 kg/ha): 7.0
- Postemergence herbicidal rating CHEAL ([7]; rate 0.032 kg/ha): 7.0
- Postemergence herbicidal rating IPOHE ([8]; rate 0.016 kg/ha): 9.0
- Postemergence herbicidal rating IPOHE ([8]; rate 0.032 kg/ha): 9.0
- Postemergence herbicidal rating ZEAMX ([9]; rate 0.016 kg/ha): 7.5
- Postemergence herbicidal rating ZEAMX ([9]; rate 0.032 kg/ha): 8.0
- Postemergence herbicidal rating TRZAW ([10]; rate 0.016 kg/ha): 4.0
- Postemergence herbicidal rating TRZAW ([10]; rate 0.032 kg/ha): 5.0
- Postemergence herbicidal rating SETVI ([11]; rate 0.016 kg/ha): 6.0
- Postemergence herbicidal rating SETVI ([11]; rate 0.032 kg/ha): 7.0
- Postemergence herbicidal rating ECHCG ([12]; rate 0.016 kg/ha): 7.0
- Postemergence herbicidal rating ECHCG ([12]; rate 0.032 kg/ha): 7.0
- Preemergence herbicidal rating ABUTH ([13]; rate 0.125 kg/ha): 9.0
- Preemergence herbicidal rating ABUTH ([13]; rate 0.25 kg/ha): 9.0
- Preemergence herbicidal rating XANST ([14]; rate 0.125 kg/ha): 8.0
- Preemergence herbicidal rating XANST ([14]; rate 0.25 kg/ha): 9.0
- Preemergence herbicidal rating DIGSA ([15]; rate 0.125 kg/ha): 7.0
- Preemergence herbicidal rating DIGSA ([15]; rate 0.25 kg/ha): 7.0
- Preemergence herbicidal rating ALMOY ([16]; rate 0.125 kg/ha): 0.0
- Preemergence herbicidal rating ALMOY ([16]; rate 0.25 kg/ha): 0.0
- Preemergence herbicidal rating AMBEL ([17]; rate 0.125 kg/ha): 9.0
- Preemergence herbicidal rating AMBEL ([17]; rate 0.25 kg/ha): 9.0
- Preemergence herbicidal rating GLXMA ([18]; rate 0.125 kg/ha): 2.0
- Preemergence herbicidal rating GLXMA ([18]; rate 0.25 kg/ha): 9.0
- Preemergence herbicidal rating CHEAL ([19]; rate 0.125 kg/ha): 9.0
- Preemergence herbicidal rating CHEAL ([19]; rate 0.25 kg/ha): 9.0
- Preemergence herbicidal rating IPOHE ([20]; rate 0.125 kg/ha): 8.0
- Preemergence herbicidal rating IPOHE ([20]; rate 0.25 kg/ha): 9.0
- Preemergence herbicidal rating ZEAMX ([21]; rate 0.125 kg/ha): 0.0
- Preemergence herbicidal rating ZEAMX ([21]; rate 0.25 kg/ha): 2.0
- Preemergence herbicidal rating TRZAW ([22]; rate 0.125 kg/ha): 0.0
- Preemergence herbicidal rating TRZAW ([22]; rate 0.25 kg/ha): 0.0
- Preemergence herbicidal rating SETVI ([23]; rate 0.125 kg/ha): 4.0
- Preemergence herbicidal rating SETVI ([23]; rate 0.25 kg/ha): 8.0
- Preemergence herbicidal rating ECHCG ([24]; rate 0.125 kg/ha): 3.0
- Preemergence herbicidal rating ECHCG ([24]; rate 0.25 kg/ha): 7.0

Structure (SMILES): C#CCN(C)S(=O)(=O)NC(=O)c1cc(-n2c(=O)cc(C(F)(F)F)n(C)c2=O)c(F)cc1Cl [Example 57]
- Postemergence herbicidal rating ABUTH ([1]; rate 0.016 kg/ha): 2.0
- Postemergence herbicidal rating ABUTH ([1]; rate 0.032 kg/ha): 5.0
- Postemergence herbicidal rating XANST ([2]; rate 0.016 kg/ha): 2.0
- Postemergence herbicidal rating XANST ([2]; rate 0.032 kg/ha): 3.0
- Postemergence herbicidal rating DIGSA ([3]; rate 0.016 kg/ha): 1.0
- Postemergence herbicidal rating DIGSA ([3]; rate 0.032 kg/ha): 2.0
- Postemergence herbicidal rating ALMOY ([4]; rate 0.016 kg/ha): 0.0
- Postemergence herbicidal rating ALMOY ([4]; rate 0.032 kg/ha): 1.0
- Postemergence herbicidal rating AMBEL ([5]; rate 0.016 kg/ha): 1.0
- Postemergence herbicidal rating AMBEL ([5]; rate 0.032 kg/ha): 2.0
- Postemergence herbicidal rating GLXMA ([6]; rate 0.016 kg/ha): 6.0
- Postemergence herbicidal rating GLXMA ([6]; rate 0.032 kg/ha): 6.5
- Postemergence herbicidal rating CHEAL ([7]; rate 0.016 kg/ha): 1.0
- Postemergence herbicidal rating CHEAL ([7]; rate 0.032 kg/ha): 2.0
- Postemergence herbicidal rating IPOHE ([8]; rate 0.016 kg/ha): 6.0
- Postemergence herbicidal rating IPOHE ([8]; rate 0.032 kg/ha): 4.0
- Postemergence herbicidal rating ZEAMX ([9]; rate 0.016 kg/ha): 2.0
- Postemergence herbicidal rating ZEAMX ([9]; rate 0.032 kg/ha): 5.0
- Postemergence herbicidal rating TRZAW ([10]; rate 0.016 kg/ha): 2.0
- Postemergence herbicidal rating TRZAW ([10]; rate 0.032 kg/ha): 2.5
- Postemergence herbicidal rating SETVI ([11]; rate 0.016 kg/ha): 1.0
- Postemergence herbicidal rating SETVI ([11]; rate 0.032 kg/ha): 3.0
- Postemergence herbicidal rating ECHCG ([12]; rate 0.016 kg/ha): 1.0
- Postemergence herbicidal rating ECHCG ([12]; rate 0.032 kg/ha): 2.0
- Preemergence herbicidal rating ABUTH ([13]; rate 0.125 kg/ha): 2.0
- Preemergence herbicidal rating ABUTH ([13]; rate 0.25 kg/ha): 2.0
- Preemergence herbicidal rating XANST ([14]; rate 0.125 kg/ha): 0.0
- Preemergence herbicidal rating XANST ([14]; rate 0.25 kg/ha): 0.0
- Preemergence herbicidal rating DIGSA ([15]; rate 0.125 kg/ha): 1.0
- Preemergence herbicidal rating DIGSA ([15]; rate 0.25 kg/ha): 3.0
- Preemergence herbicidal rating ALMOY ([16]; rate 0.125 kg/ha): 0.0
- Preemergence herbicidal rating ALMOY ([16]; rate 0.25 kg/ha): 0.0
- Preemergence herbicidal rating AMBEL ([17]; rate 0.125 kg/ha): 2.0
- Preemergence herbicidal rating AMBEL ([17]; rate 0.25 kg/ha): 2.0
- Preemergence herbicidal rating GLXMA ([18]; rate 0.125 kg/ha): 0.0
- Preemergence herbicidal rating GLXMA ([18]; rate 0.25 kg/ha): 1.0
- Preemergence herbicidal rating CHEAL ([19]; rate 0.125 kg/ha): 6.0
- Preemergence herbicidal rating CHEAL ([19]; rate 0.25 kg/ha): 8.0
- Preemergence herbicidal rating IPOHE ([20]; rate 0.125 kg/ha): 0.0
- Preemergence herbicidal rating IPOHE ([20]; rate 0.25 kg/ha): 3.0
- Preemergence herbicidal rating ZEAMX ([21]; rate 0.125 kg/ha): 0.0
- Preemergence herbicidal rating ZEAMX ([21]; rate 0.25 kg/ha): 0.0
- Preemergence herbicidal rating TRZAW ([22]; rate 0.125 kg/ha): 0.0
- Preemergence herbicidal rating TRZAW ([22]; rate 0.25 kg/ha): 0.0
- Preemergence herbicidal rating SETVI ([23]; rate 0.125 kg/ha): 0.0
- Preemergence herbicidal rating SETVI ([23]; rate 0.25 kg/ha): 1.0
- Preemergence herbicidal rating ECHCG ([24]; rate 0.125 kg/ha): 1.0
- Preemergence herbicidal rating ECHCG ([24]; rate 0.25 kg/ha): 2.0

Source: US6689773B2, “Uracil substituted phenyl sulfamoyl carboxamides” (BASF Aktiengesellschaft, priority 2000, dated 2004)
